In PMC5339874, “Fluorene-9-bisphenol is anti-oestrogenic and may cause adverse pregnancy outcomes in mice” (Nature Communications, 2017):

Test system: CD-1 mice
Assay: Global gene expression microarray of livers, ovaries and uteri
Assay type: in vivo
Description: The uteri, ovaries and livers were collected for total RNA isolation. Total RNA was isolated using Trizol reagent (Invitrogen) and further purified by NucleoSpin RNA Clean-up (Macherey-Nagel, Germany). Fluorescence labelling of the RNA samples was performed with a Jingxin cRNA linear amplification and labelling kit (CapitalBio) according to the manufacturer's instructions. The total RNA from each pool of tissue samples (a mixture from three animals) was used for microarray analysis. Cy3 dCTP was used to label the samples. The labelled products were added to SurePrint G3 mouse gene expression 8 × 60 K microarrays (Agilent) and incubated overnight at 42 °C. Following hybridization, the gene arrays were washed and scanned using an Agilent G2565CA Microarray Scanner. Glyceraldehyde 3-phosphate dehydrogenase (GAPDH) was used as an endogenous control to monitor the quality of the target preparation. The data were processed with feature extraction software (GeneSpring GX v.11; Agilent). The raw signals were log-transformed and normalized with the percentile shift normalization method. All arrays met the minimum Agilent QA/QC standards. To verify the data from the gene array, 14 genes were chosen as candidates for Q-RT-PCR. Primers are listed in Supplementary Table 4. GAPDH was used as an endogenous control. Amplification was performed using SYBR Green PCR master mix (Applied Biosystems) according to the manufacturer's instructions. The relative expression was quantified using the 2^(−ΔΔCt) method. The Gene Ontology (GO) and KEGG pathway enrichment analyses were performed with DAVID (refs [40], [41]).

[1] = 50 mg/kg bw/d BHPF, 3 days, endogenous control
[2] = liver, 50 mg kg^−1 bw d^−1, 3 days
[3] = ovaries, 50 mg kg^−1 bw d^−1, 3 days
[4] = uteri, 50 mg kg^−1 bw d^−1, 3 days

Oc1ccc(C2(c3ccc(O)cc3)c3ccccc3-c3ccccc32)cc1 [BHPF, 9,9-bis(4-hydroxyphenyl)-fluorene]
genes involved in biotransformation and oxidation-reduction processes (50 mg kg^−1 bw d^−1, 3 days): up-regulated in the uterus but not in the liver
Actb gene expression change, liver, Microarray (50 mg/kg bw/d BHPF, 3 days): 1.09
Actb gene expression change, ovary, Microarray (50 mg/kg bw/d BHPF, 3 days): 1.34
Actb gene expression change, uterus, Microarray (50 mg/kg bw/d BHPF, 3 days): 1.07
Cfd gene expression change, liver, Microarray (50 mg/kg bw/d BHPF, 3 days): -3.11
Cfd gene expression change, ovary, Microarray (50 mg/kg bw/d BHPF, 3 days): 4.13
Cfd gene expression change, uterus, Microarray (50 mg/kg bw/d BHPF, 3 days): -6.54
Orm1 gene expression change, liver, Microarray (50 mg/kg bw/d BHPF, 3 days): -1.65
Orm1 gene expression change, ovary, Microarray (50 mg/kg bw/d BHPF, 3 days): 1.18
Orm1 gene expression change, uterus, Microarray (50 mg/kg bw/d BHPF, 3 days): 23.12
Spp1 gene expression change, liver, Microarray (50 mg/kg bw/d BHPF, 3 days): -1.30
Spp1 gene expression change, ovary, Microarray (50 mg/kg bw/d BHPF, 3 days): -1.67
Spp1 gene expression change, uterus, Microarray (50 mg/kg bw/d BHPF, 3 days): 2.57
Sprr1a gene expression change, liver, Microarray (50 mg/kg bw/d BHPF, 3 days): 2.17
Sprr1a gene expression change, ovary, Microarray (50 mg/kg bw/d BHPF, 3 days): 1.17
Sprr1a gene expression change, uterus, Microarray (50 mg/kg bw/d BHPF, 3 days): -3.44
Sprr2a2 gene expression change, liver, Microarray (50 mg/kg bw/d BHPF, 3 days): 2.10
Sprr2a2 gene expression change, ovary, Microarray (50 mg/kg bw/d BHPF, 3 days): -12.01
Sprr2a2 gene expression change, uterus, Microarray (50 mg/kg bw/d BHPF, 3 days): -5.24
Sprr2b gene expression change, liver, Microarray (50 mg/kg bw/d BHPF, 3 days): 2.75
Sprr2b gene expression change, ovary, Microarray (50 mg/kg bw/d BHPF, 3 days): -2.07
Sprr2b gene expression change, uterus, Microarray (50 mg/kg bw/d BHPF, 3 days): -13.20
Sprr2f gene expression change, liver, Microarray (50 mg/kg bw/d BHPF, 3 days): 3.69
Sprr2f gene expression change, ovary, Microarray (50 mg/kg bw/d BHPF, 3 days): -5.81
Sprr2f gene expression change, uterus, Microarray (50 mg/kg bw/d BHPF, 3 days): -2.52
Sprr2g gene expression change, liver, Microarray (50 mg/kg bw/d BHPF, 3 days): 2.09
Sprr2g gene expression change, ovary, Microarray (50 mg/kg bw/d BHPF, 3 days): -5.71
Sprr2g gene expression change, uterus, Microarray (50 mg/kg bw/d BHPF, 3 days): -2.13
chil3 gene expression change, liver, Microarray (50 mg/kg bw/d BHPF, 3 days): -8.53
chil3 gene expression change, ovary, Microarray (50 mg/kg bw/d BHPF, 3 days): -9.16
chil3 gene expression change, uterus, Microarray (50 mg/kg bw/d BHPF, 3 days): -6.60
cyp2e1 gene expression change, liver, Microarray (50 mg/kg bw/d BHPF, 3 days): -1.01
cyp2e1 gene expression change, ovary, Microarray (50 mg/kg bw/d BHPF, 3 days): 1.25
cyp2e1 gene expression change, uterus, Microarray (50 mg/kg bw/d BHPF, 3 days): 5.02
ll1f6 gene expression change, liver, Microarray (50 mg/kg bw/d BHPF, 3 days): 1.95
ll1f6 gene expression change, ovary, Microarray (50 mg/kg bw/d BHPF, 3 days): -1.11
ll1f6 gene expression change, uterus, Microarray (50 mg/kg bw/d BHPF, 3 days): -10.96
serp1d gene expression change, liver, Microarray (50 mg/kg bw/d BHPF, 3 days): 1.02
serp1d gene expression change, ovary, Microarray (50 mg/kg bw/d BHPF, 3 days): 1.13
serp1d gene expression change, uterus, Microarray (50 mg/kg bw/d BHPF, 3 days): 17.78
GAPDH gene expression change, liver, Microarray [1]: 1.02
GAPDH gene expression change, ovary, Microarray [1]: 1.03
GAPDH gene expression change, uterus, Microarray [1]: -1.02
share of modified genes down-regulated [2]: 22.3%
share of modified genes up-regulated [2]: 77.7%
expression of sprr2a, sprr2b, sprr2f and sprr2g (response to E2 stimuli) [3]: down-regulated
share of modified genes down-regulated [3]: 65.5%
share of modified genes up-regulated [3]: 34.5%
expression pattern of oestrogen-responsive genes compared with that induced by E2 [4]: opposite expression pattern
share of modified genes down-regulated [4]: 43.4%
share of modified genes up-regulated [4]: 56.6%
